SMILES strings stand for the structures. Structures can show the parent of a compound that is named as a salt.

For one test, the target named is muscarinic receptors. Kind of test: inhibition of binding of 3H-oxotremorine-M to muscarinic receptors. The note with it: 3 nM 3H-oxotremorine-M, rat cerebral cortical membranes, pH 7.4, 15 min, 25° C.; read-out: Inhibition of ^3 H-Oxo. As to the method: The affinity of the compounds for the muscarinic receptors was determined using the non-selective agonist ligand, ^3 H-oxotremorine-M. Birdsdall N. J. M., Hulme E. C., and Burgen A. S. V. "The Character of Muscarinic Receptors in Different Regions of the Rat Brain", 207 Proc. Roy. Soc. 1 (London, Series B, 1980). Each compound was tested to determine the affinity of the compound for the muscarinic receptors using the following procedure.
For in vitro binding, male Sprague-Dawley (Harlan Sprague-Dawley, Indianapolis, Ind.) rats weighing from about 100 to about 150 grams each were sacrificed by decapitation. The brains were quickly removed and the cerebral cortex were dissected from the brain. The cerebral cortex tissue was homogenized in 10 volumes of 0.32M sucrose and […] at about 1000×g. The supernatant was centrifuged at about 12,000×g for about 10 minutes and the resulting pellet was resuspended in 20 mM tris-Cl, pH 7.4. The resuspended pellet was centrifuged again for about 10 minutes at about 50,000×g. The resulting homogenate was preincubated for about 10 minutes at about 25° C. and centrifuged again for about 10 minutes at about 50,000×g. The pellet was resuspended at 1 gram of pellet per 3 ml of buffer and frozen at about -80° C. until used.
The inhibition of binding of ^3 H-oxotremorine-M to muscarinic receptors was determined by mixing the compound of the Example, 3 nM ^3 H-oxotremorine-M (about 87 Ci/mmoles, New England Nuclear, Boston Mass.), and cerebral cortical membranes equivalent to about 10 mg wet weight, which is about 100 μg of cortical membrane protein, in about 1 ml total volume of […] tris-Cl buffer, pH 7.4, containing 1 mM MnCl2. The aforementioned homogenates mixture was incubated for about 15 minutes at about 25° C. and then the homogenates were filtered through glass filters (Whatman, GF/C) with vacuum. The filters were washed 3 times with about 2 ml of cold tris-Cl buffer, and placed in scintillation vials containing about 10 ml of scintillation fluid (Ready Protein+, Beckman, Fullerton, Calif.). Radioactivity trapped on the filters was determined by liquid scintillation spectrometry. Nonspecific binding was determined using 1 μM atropine. The concentration of compound required to inhibit specific binding 50% (IC50) was determined using standardized computer assisted calculations (DeLean, A. et al. Am. J. Physiol., 235, (1978)).

The next test relates to vesico-anal reflex. Kind of test: acetic acid-induced vesico-anal reflex. It counts as in vivo, rat. Particulars: for duration of the increase in vesico-anal reflex activity when administered alone / vesico-anal reflex activity when administered alone: atropine 30 μg/kg-1 mg/kg, oxybutynin 1-3 mg/kg. An excerpt:
The model of visceral nociception that was used in the testing of the compounds according to the method of this invention is the acetic acid-induced vesico-anal reflex. This model utilizes infusion of a dilute acetic acid solution into the urinary bladder as a nociceptive stimulus and records increases in electromyographic (EMG) activity from the anal sphincter as the primary measured response. Anal sphincter EMG activity is composed of 2 components, 1) a small, long duration action potential (ca. 50 msec) that is sensitive to muscarinic antagonists and 2) a larger, short duration action potential (ca. 2 msec) that is sensitive to neuromuscular blocking agents (i.e. mediated by nicotinic receptors). […] It is the striated anal sphincter muscle activity that 1) is associated with bladder activity, 2) is increased by acetic acid infusion into the bladder, and 3) represents the vesico-anal reflex.
In the acetic acid-induced vesico-anal reflex model, bladders of urethane-anesthetized rats were cannulated through the dome for continuous-infusion cystometrogram recordings. EMG electrodes were inserted into the anus and the peri-urethral musculature for recording anal and urethral sphincteric activity, respectively.
Female Sprague-Dawley rats (200-300 g) were anesthetized with 1.4 g/kg urethane (0.7 g administered i.p. and 0.7 g administered s.c.), which was supplemented with 1% isoflurane during surgery. The urinary bladder was exposed through an abdominal incision and cannulated with PE60 tubing attached to a 22 gauge needle that was inserted through the dome of the bladder. A purse-string suture (5-0 silk) through the bladder held the needle in place. The cannula was connected to an infusion pump (Harvard Apparatus, Natick Mass.) and a pressure transducer (Statham Gould, Cleveland, Ohio) through a 3 way stopcock to allow bladder filling and pressure measurement, respectively. The abdominal incision was covered with plastic wrap. A small incision was made in the perineum to allow placement of EMG electrodes into the periurethral musculature. EMG electrodes were also placed into the muscular tissue of the anus. EMG electrodes were connected to preamplifiers (Grass P511, Quincey, Mass.) with low and high pass filters set at 10 and 3000 HZ. […] A catheter inserted into the carotid artery was connected to a pressure transducer (Statham Gould, Cleveland, Ohio) to record arterial pressure, which was used to trigger a heart rate meter (Biotach, Gould, Cleveland, Ohio). A catheter was inserted into the trachea to allow for artificial respiration and monitoring of expired CO2 (Sensor Medics. Anaheim, Calif.).
After establishing control levels of anal and urethral activity, compounds were administered intravenously. Oxotremorine sesquifumarate (Sigma Chemicals, St. Louis, Mo.), atropine sulfate (RBI, Natick, Mo.), (-) scopolamine methyl bromide (RBI), physostigmine free base (Sigma Chemicals), neostigmine bromide (Sigma) and the test compounds were all dissolved in physiological saline.

[1] abbreviates: 0.5% acetic acid infused into the bladder or urethra.

In the case of `FC(F)(F)CCCSc1nsnc1[C@@H]1CN2CCC[C@@H]1C2` [Compound 130, (5S,6S)-6-(3-(4,4,4-trifluoro-1-butylthio)-1,2,5-thiadiazol-4-yl)-1-azabicyclo[3.2.1]octane oxalate], the IC50 on muscarinic receptors worked out at 1.8 nM.

In the case of `CSc1nsnc1C1CN2CCC1CC2` (centres unmarked) [Compound 131, 3-(3-Methylthio-1,2,5-thiadiazol-4-yl)-1-azabicyclo[2.2.2]octane oxalate], at muscarinic receptors, the IC50 came out at 2.8 nM.

Consider `CC(C)CCCSc1nsnc1[C@H]1CN2CCC[C@H]1C2` [Compound 157, (5R,6R)-6-(3-isohexylthio-1,2,5-thiadiazol-4-yl)-1-azabicyclo[3.2.1]octane (+) L-tartrate], for which the IC50 on muscarinic receptors worked out at 10 nM.

Regarding `CC(C)CCCSc1nsnc1[C@@H]1CN2CCC[C@@H]1C2` [Compound 158, (5S,6S)-6-(3-isohexylthio-1,2,5-thiadiazol-4-yl)-1-azabicyclo[3.2.1]octane oxalate], the IC50 at muscarinic receptors worked out at 10 nM.

With `FC(F)(F)CCCSc1nsnc1[C@H]1CN2CCC[C@H]1C2` [Compound 167, (5R,6R)-6-(3-(4,4,4-trifluorobutylthio)-1,2,5-thiadiazol-4-yl)-1-azabicyclo[3.2.1]octane oxalate], on muscarinic receptors, the IC50 is 0.76 nM.

As for `O=C1CCCN1CC#CCN1CCCC1` [Oxotremorine, Oxotremorine sesquifumarate], the “inhibition of vesico-anal reflex activity (in words)” value with vesico-anal reflex (oxotremorine 1-30 μg/kg iv, test compounds 0.01-1.0 mg/kg iv) was “dose-dependent inhibition of vesico-anal reflex activity”. The “inhibition of vesico-anal reflex activity (to % of control)” value in the test with vesico-anal reflex (oxotremorine 1-30 μg/kg iv, urethane-anesthetized rats) was 10 % of control.

For the compound `C[N+]1(C)[C@@H]2C[C@@H](OC(=O)[C@H](CO)c3ccccc3)C[C@H]1[C@@H]1O[C@@H]12` [Scopolamine methyl bromide, (-) scopolamine methyl bromide], in the test with vesico-anal reflex (scopolamine methyl bromide 1-30 ug/kg, peripherally-restricted), the “blocking of the cholinergic agonist-mediated inhibition of the vesico-anal reflex” value is “ineffective”.

Take `CC(=O)O` [acetic acid]: in the test with vesico-anal reflex (setting [1]), the anal sphincter activity result is “pronounced increases in anal sphincter activity”; the “bladder contractile activity and urethral sphincter activity” value is “modest increases in bladder contractile activity and urethral sphincter activity”. Moreover, the “duration of acetic acid-induced increase in vesico-anal reflex activity” value in the test on vesico-anal reflex (in 95% of the animals) was “over 2 hours”.

Regarding `CN1C2CCC1CC(OC(=O)C(CO)c1ccccc1)C2` (centres unmarked) [atropine, atropine sulfate], in the test with vesico-anal reflex, the “duration of the increase in vesico-anal reflex activity when administered alone” value came to 15 min and the “vesico-anal reflex activity when administered alone” value is “robust, but transient (15 min.), increases in vesico-anal reflex activity”. Further, the “reversal of the cholinergic agonist-induced inhibition of vesico-anal reflex activity” value in the test on vesico-anal reflex (atropine 0.3-1 mg/kg) is recorded as “reversed”.

Turning to `CCN(CC)CC#CCOC(=O)C(O)(c1ccccc1)C1CCCCC1` (centres unmarked) [oxybutynin], in the test with vesico-anal reflex, the “duration of the increase in vesico-anal reflex activity when administered alone” value was 15 min and the “vesico-anal reflex activity when administered alone” value was “robust, but transient (15 min.), increases in vesico-anal reflex activity”.

In the case of `CNC(=O)Oc1ccc2c(c1)[C@]1(C)CCN(C)[C@@H]1N2C` [physostigmine, physostigmine free base], the “suppression of the VA reflex by cholinesterase inhibitor” value in the test with vesico-anal reflex (centrally active (physostigmine) vs peripherally-restricted (neostigmine)) was “suppressed the VA reflex in a dose-dependent, atropine-sensitive manner”.

The values are drawn from patent US5710151A, “Method of treating urinary bladder dysfunctions” (priority 1996, dated 1998).
